The record followed here is patent US20220389500A1, “PURIFYING AND POLYMERIZING 3'-BLOCKED NUCLEOTIDES” (ILLUMINA, INC., priority 2021, published 2022).

A short description of data set [1]: Observation of precipitate and color change of dye-coupled nucleotide solutions with polishing polymerase, template, magnesium ions and buffer. In kind it is physicochemical. The settings on record: HPBCD added to dye-coupled nucleotides, magnesium ions (magnesium acetate) and buffer. The text has this:
A precipitate was formed and a color change of solution was observed when nucleotides (3′-blocked and 3′-OH), which were coupled to different fluorescent dyes, were mixed with polishing polymerase, a template, magnesium ions (from magnesium acetate), and a buffer. The change in color was interpreted as the solution having a reduced concentration of fluorescent dyes, and the precipitate was interpreted as being an aggregation of the nucleotides coupled to the fluorescent dyes. […] From this it was inferred that modified α-cyclodextrins (such as (2-hydroxypropyl)-α-cyclodextrin), other modified β-cyclodextrins (such as […], HEBCD), or modified γ-cyclodextrins (such as (2-hydroxypropyl)-γ-cyclodextrin) may promote solubility of the nucleotides and/or of the fluorescent dyes. A series of solutions were prepared in which the concentration of magnesium ions was varied between 0 and 6.3 mM, the concentration of HPBCD was varied between 0% and 10% (w/v), and the concentration of nucleotides including fluorescent dyes was varied between 0.5 and 1.5 mM. […] The plots described below with reference to FIGS. 12-15 were obtained by using the measured normalized intensities, together with the corresponding concentrations of different solution components, in a model that interpolated the behavior of the solution system for additional concentrations. […]

The nature of data set [2]: Concentrations of byproducts diphosphate and tetraphosphate in nucleotide solutions vs HPBCD, magnesium ions and nucleotides (FIG. 15). In kind it is physicochemical. Conditions: solutions with buffer, polymerase and oligonucleotide template. The text has this:
A precipitate was formed and a color change of solution was observed when nucleotides (3′-blocked and 3′-OH), which were coupled to different fluorescent dyes, were mixed with polishing polymerase, a template, magnesium ions (from magnesium acetate), and a buffer. The change in color was interpreted as the solution having a reduced concentration of fluorescent dyes, and the precipitate was interpreted as being an aggregation of the nucleotides coupled to the fluorescent dyes. […] The plots described below with reference to FIGS. 12-15 were obtained by using the measured normalized intensities, together with the corresponding concentrations of different solution components, in a model that interpolated the behavior of the solution system for additional concentrations. […]
FIG. 15 includes plots of the concentrations of different byproducts as a function of concentrations of the modified β-cyclodextrin HPBCD, of magnesium ions, and of the fluorescently labeled nucleotides FFA-1, FFA-3, and FFC-1. More specifically, the respective concentrations of diphosphate and tetraphosphate in the solutions were measured and used in the above-noted models. […]

Data set [3] has as its system 3′-OH nucleotides. The experiment in a line: Purification with Taq polymerase at different temperatures and nucleotide concentrations, then 2×26 cycle sequencing on MISEQ (FIG. 11). In kind it is biochemical. Conditions: 30 minutes, 0.5 mM or 1 mM nucleotides, control about 0.1%. As to the method:
FIG. 11 is a plot of prephasing during polymerization of 3′-blocked nucleotides that were purified to remove 3′-OH nucleotides using different temperatures and concentrations of 3′-blocked nucleotides. Similarly as for Example 1, an aqueous solution of 3′-blocked nucleotides blocked with azidomethyl groups was heated for 5 hours at 55° C. so as to convert a portion of the 3′-blocked nucleotides to 3′-OH nucleotides. The resulting aqueous mixture of 3′-blocked nucleotides and 3′-OH nucleotides was purified for 30 minutes in a manner such as described with reference to FIGS. 1A-1B and 3, using 10× of an hp oligomer template with 20 degenerated bases (NNNNNNNNNNNNNNNNNNNN CGGCCATATAACTGGTAGCTTTTTTAAGCTACC AGTT AT ATG GCC G (SEQ ID NO. 1)), 10× of the Taq polymerase and either 0.5 mM or 1 mM of the heated 3′-blocked nucleotides, at a variety of temperatures. The purified 3′-blocked nucleotides then were polymerized using 2×26 cycle runs on the MISEQ® sequencing-by-synthesis instrument (Illumina, Inc., San Diego Calif.) using the PhiX library as templates. The normalized prephasing was measured for the purified 3′-blocked nucleotides, as well as for heated and unpurified Y-blocked nucleotides and for unheated Y-blocked nucleotides. […]

Data set [4] deals with 3′-OH nucleotides. Nature of the data set: Purification of heated 3′-blocked nucleotides with different polymerases and temperatures, then 2×26 cycle sequencing on MINISEQ (FIG. 9). In kind it is biochemical. Conditions: 30 minutes, hp template with 20 degenerated bases, nucleotides heated 5 hours at 55° C. On the procedure:
FIG. 9 is a plot of phasing and prephasing during polymerization of 3′-blocked nucleotides that were purified to remove 3′-OH nucleotides using different polymerases and different temperatures. More specifically, similarly as for Example 1, an aqueous solution of 3′-blocked nucleotides blocked with azidomethyl groups was heated for 5 hours at 55° C. so as to convert a portion of the 3′-blocked nucleotides to 3′-OH nucleotides. The resulting aqueous mixture of 3′-blocked nucleotides and 3′-OH nucleotides was purified for 30 minutes in a manner such as described with reference to FIGS. 1A-1B and 3, using an hp oligomer template with 20 degenerated bases (meaning that at each position, one of the four bases could be incorporated; since this is random, each oligomer should have a different sequence) and different polymerases and different temperatures such as described further below. The purified 3′-blocked nucleotides then were polymerized using 2×26 cycle runs on the MINISEQ® sequencing-by-synthesis instrument (Illumina, Inc., San Diego Calif.) using the PhiX library as templates. The slope adjusted prephasing and phasing were measured for the purified 3′-blocked nucleotides, as well as for heated and unpurified 3′-blocked nucleotides and for unheated 3′-blocked nucleotides.
Different polymerases were used at different temperatures to determine their effect on phasing and prephasing. More specifically, the next data points to the right (“Vent polishing 60 C”) correspond to polymerization of 3′-blocked nucleotides that had been heated as indicated above and were purified using the Deep Vent polymerase at 60° C. […] From a comparison of performance of the different polymerases, it may be understood that using the Deep Vent polymerase at 60° C. provided similar phasing and prephasing as for the lower baseline “no stress” in which the 3′-blocked nucleotides were not heated. Additionally, it may be understood that using the Taq polymerase at the experimental temperatures provided even less prephasing than for the lower baseline “no stress” in which the 3′-blocked nucleotides were not heated. Accordingly, it may be understood that the Taq polymerase removed from solution not only the 3′-OH nucleotides that were generated using heating, but also at least some of the 3′-OH nucleotides that were present even without heating. Under the particular experimental conditions in this example, the Taq polymerase appeared to provide better performance than Deep Vent, and neither Deep Vent or Taq appeared to detrimentally influence phasing.

Turning to `CC(O)COC[C@H]1O[C@@H]2O[C@H]3[C@H](O)[C@@H](O)[C@@H](O[C@H]4[C@H](O)[C@@H](O)[C@@H](O[C@H]5[C@H](O)[C@@H](O)[C@@H](O[C@H]6[C@H](O)[C@@H](O)[C@@H](O[C@H]7[C@H](O)[C@@H](O)[C@@H](O[C@H]8[C@H](O)[C@@H](O)[C@@H](O[C@H]1[C@H](O)[C@H]2O)O[C@@H]8COCC(C)O)O[C@@H]7COCC(C)O)O[C@@H]6COCC(C)O)O[C@@H]5COCC(C)O)O[C@@H]4COCC(C)O)O[C@@H]3COCC(C)O` (stereo partly drawn) [HPBCD, (2-hydroxypropyl)-β-cyclodextrin], the “precipitate formation and color change of solution” value in data set [1] is listed as “did not form a precipitate or change color”. Further, the “effect on formation of byproducts (diphosphate, tetraphosphate)” value in data set [2] is “suppressed the formation of different byproducts”.

Turning to “Taq polymerase: Thermus aquaticus DNA polymerase I, thermostable polishing polymerase”, the normalized prephasing result is given as “significantly lower than the control” in data set [3] (purified at 53° C.); “significantly lower than the control” in data set [3] (purified at 60° C.); “about 0.09%” in data set [4] (purified at 37° C.); “about 0.08%” in data set [4] (purified at 45° C.); “about 0.09%” in data set [4] (purified at 60° C.). Moreover, the normalized phasing result is “about 0.13%” in data set [4] (purified at 37° C.), “about 0.12%” in data set [4] (purified at 45° C.) and “about 0.12%” in data set [4] (purified at 60° C.).
